Consider 14 compounds from patent US20220387466A1, “COMPOUNDS AND PHARMACEUTICAL COMPOSITIONS FOR PREVENTION AND/OR TREATMENT OF DYSBIOSIS AND ANTIBACTERIAL ANTIDOTES FOR MICROBIOME-PROTECTION” (priority 2019, published 2022).

The structures appear in SMILES notation. Structures can show the parent of a compound that is named as a salt.

One test relates to E. faecium. Put plainly: Antidote with macrolide on enterococci (Example 6). The format is cell-based.
Test [1] relates to E. faecalis. Put plainly: Antidote with macrolide on enterococci (Example 6). The format is cell-based, Enterococcus faecalis. From the text:
Heat maps show median area under the growth curve (AUC) of three biologically independent replicates. […] All drug concentrations are in μM.
Here, the inventors expanded testing towards additional antidotes, and included the intestinal human pathogen Enterococcus faecalis.

Test [2] concerns E. faecalis. Description: E. faecalis-containing synthetic community, E. faecalis CFU on selective medium (Example 7). In kind it is cell-based, Enterococcus faecalis. The source says: (§1) Heat maps show median area under the growth curve (AUC) of the seven-member synthetic community including the pathogen E. faecalis. The numbers within the heat map represent the total number of all E. faecalis viable cells for each erythromycin-antidote combination as determined by enumerating of E. faecalis colony forming units after plating on selective medium. All drug concentrations are in μM. n. d.=not detectable.
(§2) The inventors exposed synthetic communities that contained the intestinal gut pathogen E. faecalis to erythromycin, and evaluated rescue of gut commensals and simultaneous killing of the pathogen in the presence of antidotes.

In test [3] the test system is species of the order Bacteroidales. Put plainly: Antidote vs azithromycin across seven gut Bacteroidales (Example 4). The format is cell-based. Conditions: combination with azithromycin. The protocol:
The antidotes dicumarol (first column), benzbromarone (second column) and tolfenamic acid (third column) were tested for their efficacy in antagonizing the macrolide antibiotic azithromycin across seven prevalent and abundant gut Bacteroidales (B. vulgatus, B. fragilis NT, B. thetaiotaomicron, P. copri, B. caccae, B. ovatus, P. distasonis). […] All drug concentrations are in μM.
In particular, they aimed at testing, whether these antidotes can also protect from other macrolides such as azithromycin, a clinically more relevant antibiotic.

Test [4] concerns synthetic gut commensal community of seven human gut commensals. Put plainly: Synthetic gut commensal community growth with macrolide and antidote (Example 5). In kind it is cell-based. Particulars: erythromycin and azithromycin. The source says:
Heat maps depict area under the growth curve (AUC) of a synthetic community consisting of seven human gut commensals. Shown is the median AUC of three individual replicates. All drug concentrations are in μM.
So far, antidote effects have only been analyzed in single or pure cultures. However, the human gut microbiome is a complex community of many different bacterial taxa that is usually not adequately mimicked in monocultures.

In test [5] the test system is B. uniformis. Put plainly: Prestwick library screen for microbiome-protective antibiotic antagonists (growth AUC z-scores). In kind it is cell-based, Bacteroides uniformis. Particulars: z-score of normalized growth AUC, two replicates. The source says:
The inventors reasoned that it should be possible to identify drugs that selectively antagonize the effect of antibiotics on gut microbes, while retaining activity against pathogens. Therefore, the inventors screened the Prestwick library to identify antagonizing compounds to erythromycin or doxycycline on two abundant and prevalent gut microbes, B. vulgatus and B. uniformis.
Preparation of screening plates. The Prestwick Chemical Library was purchased from Prestwick Chemical Inc. and drugs were re-arrayed, diluted and stored in 96 well format as described before. The inventors prepared drug plates (2×drug concentration) in MGAM medium and stored them at −30° C. For each experiment, drug plates were thawed, supplemented with the respective antibiotic solution (freshly prepared in MGAM) and pre-reduced in the anaerobic chamber overnight. All rearranging and aliquoting steps were done using the Biomek FXP (Beckman Coulter) system.
Inoculation and screening conditions. Strains were grown twice overnight, the second overnight culture was diluted in MGAM to reach OD578 nm 0.04 (4×the desired starting OD). 25 μl of the diluted cultures were used to inoculate wells containing 50 μl of 2× concentrated Prestwick drug and 25 μl of the 4× concentrated antibiotic using the semi-automated, 96-well multi-channel pipette epMotion 96 (Eppendorf). Each well contained 1% DMSO, 20 μM of the Prestwick drug and a species-specific antibiotic concentration that was just inhibitory for the respective strain (0.625 μM for erythromycin, 0.04 μM doxycycline for B. uniformis and 0.08 μM doxycycline for B. vulgatus). Plates were sealed with breathable membranes (Breathe-Easy®) and OD578 was measured hourly after 30 sec of linear shaking with a microplate spectrophotometer (EON, Biotek) and an automated microplate stacker (Biostack 4, Biotek) fitted inside a custom-made incubator (EMBL Mechanical Workshop). Growth curves were collected up to 24 h. For each antibiotic, each species was screen in biological duplicates. All experiments included control wells of unperturbed growth (32 wells per run) and control wells for growth in the presence of the antibiotic only (8 wells per plate).
Analysis pipeline and hit calling: All growth curves within a plate were truncated at the transition time from exponential to stationary phase and converted to normalized AUCs using in-run control wells (no drug) as described before. The inventors then calculated z-scores based on these normalized AUCs, removed replicates with 8-fold differences in z-scores to eliminate noise effects, computed mean z scores across the two replicates and selected combinations with mean z-scores >3. This selection included 19 potential antibiotic antagonists and the inventors followed up on 14 of them (7 potential erythromycin and 7 potential doxycycline antagonists in either B. vulgatus or B. uniformis—see FIG. 4) in independent experiments.

Test [6] deals with B. vulgatus. Put plainly: 8x8 checkerboard assay for anaerobic commensals (antibiotic vs antagonist). The format is cell-based, Bacteroides vulgatus. From the text: Checkerboard assays for anaerobic commensals: Validated antagonists were further investigated in 8×8 checkerboard assays, where both antibiotics and antagonists were titrated against each other. Such assays were first performed for the commensals that were originally screened (i. e. B. vulgatus and B. uniformis—4 replicates) and later expanded towards 6 further gut microbes (B. caccae, B. fragilis NT, B. ovatus, B. thetaiotaomicron, P. copri, P. distasonis—2 replicates). For vertical gradients, 2-fold serial dilutions of the antagonists were prepared first in 100× in DMSO and diluted in MGAM as described above (section ‘Validation of microbiome-protective antagonists’). Horizontal antibiotic dilution series were freshly prepared in MGAM at 4× final concentration in equidistant concentration steps. Both, vertical and horizontal dilution series were combined (50 μl of the antagonist gradients (2×) and 25 μl of the antibiotic gradients (4×)) in 96 well plates. Plates were pre-reduced under anaerobic conditions overnight, inoculated with 25 μl of diluted overnight culture (at 4× starting OD) and sealed with breathable membrane (Breathe-Easy®). Bacterial growth was monitored once per hour for 24 hours after 30 sec linear shaking (Eon+Biostack 4, Biotek) under anaerobic conditions. Growth curves were converted into normalized AUCs as described using in-plate controls to define unperturbed growth.

The subject of test [7] is B. uniformis. Put plainly: Validation of microbiome-protective antagonists (concentration-dependent growth rescue). In kind it is cell-based, Bacteroides uniformis. Particulars: antagonist gradient, normalized AUC >0.25 = growth rescue. The protocol: (§3) Validation of microbiome-protective antagonists: In a first step, the inventors kept the erythromycin/doxycycline concentration constant (0.625 μM for erythromycin, 0.078 μM (B. vulgates)/0.039 μM (B. uniformis) for doxycycline) and tested concentration gradients of the potential antagonists with ranges depending on the antagonist's solubility. Compounds were purchased from independent vendors and dissolved at 100× starting concentration in DMSO. Eight 2-fold serial dilutions were prepared in 96-well plates with each row containing a different antagonist, sufficient control DMSO wells and wells with just the respective antibiotic (‘antibiotic-only’ control). These master plates were diluted in MGAM medium (50 μl) to 2×assay concentration and 25 μl freshly prepared antibiotic solution (4× test concentration) was added. Plates were pre-reduced overnight in an anaerobic chamber and inoculated with 25 μl of overnight cultures (prepared as described under “Growth conditions”) to reach a starting OD578 of 0.01 and 1% DMSO concentration. Growth was monitored hourly for 24 h after 30 sec of linear shaking. Experiments were performed in biological triplicates. For analysis, growth curves were converted into normalized AUCs (see above). The inventors accounted for residual growth in the presence of the antibiotic by subtracting the median normalized AUCs of the ‘antibiotic-only’ control per plate.

Test [8] concerns seven-member synthetic community including the pathogen E. faecalis. Description: E. faecalis-containing synthetic community, community growth AUC (Example 7). The format is cell-based.
Source text: as §1, §2

Test [9] deals with B. vulgatus. Put plainly: Prestwick library screen for microbiome-protective antibiotic antagonists (growth AUC z-scores). The format is cell-based, Bacteroides vulgatus. Conditions: Doxycycline 0.08 μM + 20 μM drug, z-score of normalized growth AUC, two replicates.
The test system of test [10] is B. vulgatus. Description: Validation of microbiome-protective antagonists (concentration-dependent growth rescue). In kind it is cell-based, Bacteroides vulgatus. Particulars: Doxycycline 0.078 μM constant, antagonist gradient, normalized AUC >0.25 = growth rescue. The protocol: as §3
Where [11] appears, read: erythromycin 1.15 μM + 40 μM dicumarol or 20 μM benzbromarone.
Where [12] appears, read: Erythromycin 0.625 μM + 20 μM drug.
[13] abbreviates: Doxycycline 0.04 μM + 20 μM drug.

For the compound `CCc1oc2ccccc2c1C(=O)c1cc(Br)c(O)c(Br)c1` [Benzbromarone], the “interaction with antibacterial effects of erythromycin/azithromycin” value in the test on E. faecium and in the test with E. faecalis [1] was “synergized” throughout. The “rescue from erythromycin or azithromycin treatment” value with E. faecium and in the test with E. faecalis [1] was “Neither dicumarol nor benzbromarone or tolfenamic acid could rescue” each time. Also, in the test with E. faecalis [2] (setting [11]), the E. faecalis counts entry was “drop/are still found at below the detection limit”. Besides, in the test on E. faecalis [2] (erythromycin + antidote), the “E. faecalis cells in community under erythromycin + antidote” value is “efficiently inhibited”. For the same compound, the “protection of Bacteroidales species from azithromycin” value in test [3] is given as “can be Protected”. In addition, the “protection (growth rescue) of synthetic gut commensal community from macrolide antibiotics” value in [4] was “can be Protected”. Moreover, the Mean z-score in the test with B. uniformis [5] (setting [12]) is 6.034. Also, the “rescue of B. vulgatus growth from erythromycin” value in the test on B. vulgatus [6] (combination with erythromycin) is “can rescue the growth”. Besides, the Validation entry in the test with B. uniformis [7] (Erythromycin 0.625 μM constant) is recorded as “FALSE”. In [8] (setting [11]), the “community growth (AUC)” value is listed as “the community is rescued”. In addition, the “rescue of the community despite erythromycin treatment” value in test [8] (erythromycin + antidote) is recorded as “rescue of the community”.

`O=C1Nc2ccc(Cl)cc2[C@@](C#CC2CC2)(C(F)(F)F)O1` [Efavirenz]: the Mean z-score in the test on B. vulgatus [9] was 3.138.

Take `Cc1ccc(Cl)c(Nc2ccccc2C(=O)O)c1Cl` [Meclofenamic acid sodium salt monohydrate]: in the test with B. vulgatus [9], the Mean z-score is given as 3.010.

`CC[C@H](c1ccc(O)cc1)[C@@H](CC)c1ccc(O)cc1` [Hexestrol]: the Mean z-score in the test on B. uniformis [5] (setting [12]) is recorded as 9.630. In the test with B. uniformis [7] (Erythromycin 0.625 μM constant), the Validation result was “TRUE”.

In the case of `CC(C)c1c(CN(C)C(C)Cc2ccccc2)n(C)n(-c2ccccc2)c1=O` (stereo not shown) [Famprofazone], the Mean z-score with B. uniformis [5] (setting [12]) worked out at 7.832. In the test with B. uniformis [7] (Erythromycin 0.625 μM constant), the Validation result is reported as “FALSE”.

For `CC/C(=C(/CC)c1ccc(O)cc1)c1ccc(O)cc1` [Diethylstilbestrol], the values for the Mean z-score in the test on B. vulgatus [9] and in the test on B. uniformis [5] (setting [12]) were 3.296 and 9.258, respectively. In the test on B. uniformis [7] (Erythromycin 0.625 μM constant), the Validation entry is “TRUE”.

In the case of `O=C(O)Cc1cc(I)c(Oc2ccc(O)c(I)c2)c(I)c1` [3,3′,5-triiodothyroacetic acid], the Mean z-score with B. uniformis [5] (setting [13]) was 4.333. For the same compound, the Validation entry in the test with B. uniformis [7] (Doxycycline 0.039 μM constant) is “TRUE”.

With `CCCCCN(CCCCC)C(=O)C(CCC(=O)O)NC(=O)c1ccc(Cl)c(Cl)c1` (stereo not shown) [Lorglumide sodium salt], in the test with B. uniformis [5] (setting [12]), the Mean z-score is listed as 6.106. Besides, the Validation result with B. uniformis [7] (Erythromycin 0.625 μM constant) is “TRUE”.

Turning to `Oc1cc(Cl)ccc1Oc1ccc(Cl)cc1Cl` [Triclosan], the Mean z-score in the test on B. uniformis [5] (setting [13]) was determined as 3.066. Moreover, the Validation entry with B. uniformis [7] (Doxycycline 0.039 μM constant) is “FALSE”.

As to `CCC(Cc1c(I)cc(I)c(N)c1I)C(=O)O` (stereo not shown) [Iopanoic acid], the Mean z-score with B. vulgatus [9] came to 5.698. The Validation result in the test on B. vulgatus [10] is listed as “TRUE”.

For `N#CC(c1ccc(Cl)cc1)c1c(Cl)cc(-n2ncc(=O)[nH]c2=O)cc1Cl` (stereo not shown) [Diclazuril], in the test on B. vulgatus [9], the Mean z-score stood at 3.117.

Take `CCCCc1nc(Cl)c(CO)n1Cc1ccc(-c2ccccc2-c2nn[nH]n2)cc1` [Losartan]: the Mean z-score in the test on B. uniformis [5] (setting [13]) was determined as 3.421. The Validation entry in the test with B. uniformis [7] (Doxycycline 0.039 μM constant) is recorded as “FALSE”.

On to `Cc1ccc(-c2cc(C(F)(F)F)nn2-c2ccc(S(N)(=O)=O)cc2)cc1` [Celecoxib], for which the Mean z-score in the test on B. uniformis [5] (setting [13]) came to 3.275.

Take `O=C(O)c1cc(-c2ccc(F)cc2F)ccc1O` [Diflunisal]: in the test on B. vulgatus [9], the Mean z-score was found to be 3.265. Moreover, the “rescue of B. vulgatus growth from doxycycline” value in the test with B. vulgatus [6] (combination with doxycycline) was “rescued”. The Validation result with B. vulgatus [10] is given as “TRUE”.
